The source of these data is patent US11085050B2, “Elite event EE-GH7 and methods and kits for identifying such event in biological samples” (BASF AGRICULTURAL SOLUTIONS SEED, US LLC, priority 2016, dated 2021).

In data set [1] the test system is commercial cotton cultivars comprising EE-GH7. As to the kind of experiment: Herbicide tolerance after introgression of EE-GH7 into commercial cotton cultivars. The note with it: EE-GH7 introgressed by repeated back-crossing into commercial cultivars. Type of data set: in vivo, cotton (Gossypium hirsutum). The text has this: This confirms the status of event EE-GH7 as an elite event.

Data set [2] has as its system plants comprising EE-GH7. As to the kind of experiment: Field tolerance of plants comprising EE-GH7 to IFT, glyphosate and combinations. Type of data set: in vivo, cotton (Gossypium hirsutum). Here is the method: Tolerance of plants comprising EE-GH7 to IFT, to glyphosate and to combinations thereof, was tested at different locations in the field. […] Currently available data appear to indicate a performance which is at least equal to, or better than the performance of plants comprising EE-GH7 over plants comprising the hppd and epsps chimeric genes as described in WO2013/026740.

As for `CS(=O)(=O)c1cc(C(F)(F)F)ccc1C(=O)c1cnoc1C1CC1` [IFT, (5-cyclopropyl-4-isoxazolyl)[2-(methylsulfonyl)-4-(trifluoromethyl)phenyl]methanone], the “Expression of the transgene as determined by herbicide tolerance” value in data set [1] was “meets commercially acceptable levels”. For the same compound, the “Tolerance of plants comprising EE-GH7 to the herbicide” value in data set [2] (different locations, IFT alone, in particular applied before emergence) is listed as “good tolerance”.
With `O=C(O)CNCP(=O)(O)O` [glyphosate], the “Expression of the transgene as determined by herbicide tolerance” value in data set [1] is listed as “meets commercially acceptable levels”. The “Tolerance of plants comprising EE-GH7 to the herbicide” value in data set [2] (applied post emergence) is “good tolerance”. Also, in data set [2] (versus EE-GH3 of WO2007/017186), the “Glyphosate tolerance of plants comprising EE-GH7 compared with elite glyphosate tolerant event EE-GH3” value is “equal to or better than”.
